The numbers were not newly measured in US20040146462A1, “Contrast agents” (priority 1998, published 2004), which cites them from elsewhere.

The series concerns coronary blood flow in healthy myocardial tissue. The settings on record: administration of adenosine.

As for `Nc1ncnc2c1ncn2[C@@H]1O[C@H](CO)[C@@H](O)[C@H]1O` [adenosine], the “increase in coronary blood flow in healthy myocardial tissue” value is “in excess of fourfold”.
